Experimental data taken from PubChem BioAssay AID1259407 (Chemical Carcinogenesis Research Information System (CCRIS), 2018).
Activity calls are given as the source filed them. The rule behind the calls is not given here.

Tested on: CCRIS mutagenicity, Ames/micronucleus/aberration tests
Assay: CCRIS mutagenicity studies

Structure (SMILES) | mutagenic call (Test System: AMES SALMONELLA TYPHIMURIUM, Strain/Indicator: TA98, Metabolic Activation: HAMSTER, LIVER, S-9, AROCLOR 1254 (10%), Method: PREINCUBATION) | mutagenic call (Test System: AMES SALMONELLA TYPHIMURIUM, Strain/Indicator: TA98, Metabolic Activation: NONE, Method: PREINCUBATION) | mutagenic call (Test System: AMES SALMONELLA TYPHIMURIUM, Strain/Indicator: TA98, Metabolic Activation: RAT, LIVER, S-9, AROCLOR 1254 (10%), Method: PREINCUBATION) | mutagenic call (Test System: AMES SALMONELLA TYPHIMURIUM, Strain/Indicator: TA100, Metabolic Activation: HAMSTER, LIVER, S-9, AROCLOR 1254 (10%), Method: PREINCUBATION) | mutagenic call (Test System: AMES SALMONELLA TYPHIMURIUM, Strain/Indicator: TA100, Metabolic Activation: NONE, Method: PREINCUBATION) | mutagenic call (Test System: AMES SALMONELLA TYPHIMURIUM, Strain/Indicator: TA100, Metabolic Activation: RAT, LIVER, S-9, AROCLOR 1254 (10%), Method: PREINCUBATION) | mutagenic call (Test System: AMES SALMONELLA TYPHIMURIUM, Strain/Indicator: TA1535, Metabolic Activation: HAMSTER, LIVER, S-9, AROCLOR 1254 (10%), Method: PREINCUBATION) | mutagenic call (Test System: AMES SALMONELLA TYPHIMURIUM, Strain/Indicator: TA1535, Metabolic Activation: NONE, Method: PREINCUBATION) | mutagenic call (Test System: AMES SALMONELLA TYPHIMURIUM, Strain/Indicator: TA1535, Metabolic Activation: RAT, LIVER, S-9, AROCLOR 1254 (10%), Method: PREINCUBATION) | mutagenic call (Test System: AMES SALMONELLA TYPHIMURIUM, Strain/Indicator: TA1537, Metabolic Activation: HAMSTER, LIVER, S-9, AROCLOR 1254 (10%), Method: PREINCUBATION) | mutagenic call (Test System: AMES SALMONELLA TYPHIMURIUM, Strain/Indicator: TA1537, Metabolic Activation: NONE, Method: PREINCUBATION) | mutagenic call (Test System: AMES SALMONELLA TYPHIMURIUM, Strain/Indicator: TA1537, Metabolic Activation: RAT, LIVER, S-9, AROCLOR 1254 (10%), Method: PREINCUBATION) | mutagenic call (End Point: IN VITRO CHROMOSOMAL ABERRATIONS, Test System: CHO-WBL CELLS, Metabolic Activation: NONE) | mutagenic call (Test System: MOUSE LYMPHOMA, Strain/Indicator: L5178Y (TK+/TK-), Metabolic Activation: NONE, Method: SUSPENSION/PLATE) | mutagenic call (Test System: MOUSE LYMPHOMA, Strain/Indicator: L5178Y (TK+/TK-), Metabolic Activation: RAT, LIVER, S-9, AROCLOR 1254, Method: SUSPENSION/PLATE) | mutagenic call (Test System: MOUSE LYMPHOMA, Strain/Indicator: L5178Y (TK+/TK-), Metabolic Activation: RAT, LIVER, S-9, Method: SUSPENSION/PLATE)
C[CH2][Pb]([Cl])([CH2]C)[CH2]C | inactive; negative | inactive; negative | inactive; negative | inactive; negative | inactive; negative | inactive; negative | inactive; negative | inactive; negative | inactive; negative | inactive; negative | inactive; negative | inactive; negative |  |  |  | 
OC[C@H]1O[C@@](CO)(O[C@H]2O[C@H](CO)[C@@H](O)[C@H](O)[C@H]2O)[C@@H](O)[C@@H]1O |  |  |  |  |  |  |  |  |  |  |  |  | active; positive (structural changes); osmolality of solution decisive factor | inactive; negative | inactive; negative | inactive; negative
